One block for each compound: values may come before it.
Columns and labels:
[1] = test system: pancreatic stellate cells (PSC); experiment: PSC adhesion assay on coated wells; type: cell-based, rat; details: for inhibition of PSC adhesion to CTGF4: 2 μg/ml CTGF4 coat, peptides 35 μM; for inhibition of PSC adhesion to CTGF4 / inhibition of PSC adhesion to CTGF1-4: antibodies 25 μg/ml, heparin 2 μg/ml
Text: Rat PSCs were isolated by a modification of the method described by Phillips et al., Gut; 52:677-82, 2003. Briefly, pancreatic tissue was digested in situ with 0.03% collagenase P (Roche, Indianapolis, Ind.) in HBSS by perfusion through the thoracic aorta. This protocol was approved by the Institutional Animal Care and Use Committee of Children's Research Institute, Columbus, Ohio. The tissue was pooled, minced with scissors, and then digested with 0.05% collagenase P, 0.02% protease XIV (Sigma, St. Louis), and DNase I (Roche, Indianapolis, Ind.) in HBSS. The resulting cell suspension was centrifuged in a 12% Optiprep gradient at 1400 g for 14 minutes. Stellate cells separated into a hazy band just above the interface of a the gradient and the aqueous buffer. This band was harvested, and the cells washed and resuspended in DMEM supplemented with 25 mM Hepes buffer, 10% FBS, and 100 U/ml penicillin in, 100 μg/ml streptomycin. The, cells were maintained at 37° C. in a humidified atmosphere of 5% CO2/95% air.
The ability of activated PSC to adhere to non-tissue culture plastic microtiter wells coated with recombinant CTGF1-4, CTGF3-4 or CTGF4 was investigated. The solid phase binding assay was carried out as described in Example 2. […] To assess the possibility that CTGF-mediated PSC adhesion involved cell surface integrins, the effect of divalent cations on cell adhesion was examined, as described in Example 2. […]
Because CTGF is a heparin-binding protein, this property was further investigated.
To identify the peptides that bind to PSCs, cell adhesion assays were carried out as described in Example 3.
To further investigate the peptide binding, P2 or P5 (10 μM) or vehicle buffer alone (no add) were added to PSC cell suspensions for 30 minutes at room temperature.

[2] = test system: vascular endothelial cells, intestinal epithelial, and hepatic stellate cells; experiment: Adhesion of cell types to 10 kDa CTGF; type: cell-based
Experimental: To confirm the functionality of residues 247-349 of SEQ ID NO: 1 (containing module 4 alone; denoted as CTGF4), this region of CTGF was produced as a maltose binding protein (MBP) fusion protein in E. coli as described in Ball et al., J Endocrinol; 176: R1-R7, 2003. […] HPLC-purified 10 kDa CTGF promoted 3T3 cell adhesion in a dose-dependent manner, with maximal binding at 8 ng/well. […] Also, the binding of all cell types to 10 kDa CTGF was reduced by EDTA treatment, though this effect was relatively modest in 3T3 cells. Thus, E coli-derived CTGF isoforms comprising essentially module 4 are intrinsically functional in the absence of the other constituent modules of CTGF.

integrin α5β1 = integrin α5β1 (Homo sapiens, UniProt P05556+P08648); experiment: Solid phase ELISA of integrin α5β1 binding; details: peptides 35 μM; EDTA 5 mM
integrin α5β1, sequence (P08648 42-894 limits assumed): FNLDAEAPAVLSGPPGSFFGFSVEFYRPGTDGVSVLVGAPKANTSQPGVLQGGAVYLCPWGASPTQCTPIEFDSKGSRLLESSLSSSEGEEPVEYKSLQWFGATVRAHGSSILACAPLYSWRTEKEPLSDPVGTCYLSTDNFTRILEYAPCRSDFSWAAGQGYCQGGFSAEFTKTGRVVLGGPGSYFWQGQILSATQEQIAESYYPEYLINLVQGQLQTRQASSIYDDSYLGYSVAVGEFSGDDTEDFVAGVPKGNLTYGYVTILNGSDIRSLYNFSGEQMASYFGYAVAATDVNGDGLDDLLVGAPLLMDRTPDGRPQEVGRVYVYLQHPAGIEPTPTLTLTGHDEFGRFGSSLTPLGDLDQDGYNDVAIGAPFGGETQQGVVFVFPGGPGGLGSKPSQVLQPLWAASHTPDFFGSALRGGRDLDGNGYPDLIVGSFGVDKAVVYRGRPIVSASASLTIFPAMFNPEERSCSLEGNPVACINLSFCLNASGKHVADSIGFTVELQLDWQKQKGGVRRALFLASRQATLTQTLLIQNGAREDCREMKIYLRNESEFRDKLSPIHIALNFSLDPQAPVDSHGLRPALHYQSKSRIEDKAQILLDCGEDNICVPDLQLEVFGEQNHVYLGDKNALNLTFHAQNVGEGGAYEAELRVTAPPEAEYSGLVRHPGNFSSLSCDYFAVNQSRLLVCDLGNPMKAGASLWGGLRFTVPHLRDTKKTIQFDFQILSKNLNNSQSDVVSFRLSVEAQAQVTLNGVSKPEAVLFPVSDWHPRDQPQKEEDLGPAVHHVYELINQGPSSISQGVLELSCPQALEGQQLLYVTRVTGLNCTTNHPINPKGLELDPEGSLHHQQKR
integrin α5β1, sequence (P08648 895-1049 partner limits assumed): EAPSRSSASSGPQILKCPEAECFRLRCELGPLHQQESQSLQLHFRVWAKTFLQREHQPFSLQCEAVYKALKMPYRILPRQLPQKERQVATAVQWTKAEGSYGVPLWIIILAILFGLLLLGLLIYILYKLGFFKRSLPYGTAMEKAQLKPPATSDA
integrin α5β1, sequence (P05556 21-798): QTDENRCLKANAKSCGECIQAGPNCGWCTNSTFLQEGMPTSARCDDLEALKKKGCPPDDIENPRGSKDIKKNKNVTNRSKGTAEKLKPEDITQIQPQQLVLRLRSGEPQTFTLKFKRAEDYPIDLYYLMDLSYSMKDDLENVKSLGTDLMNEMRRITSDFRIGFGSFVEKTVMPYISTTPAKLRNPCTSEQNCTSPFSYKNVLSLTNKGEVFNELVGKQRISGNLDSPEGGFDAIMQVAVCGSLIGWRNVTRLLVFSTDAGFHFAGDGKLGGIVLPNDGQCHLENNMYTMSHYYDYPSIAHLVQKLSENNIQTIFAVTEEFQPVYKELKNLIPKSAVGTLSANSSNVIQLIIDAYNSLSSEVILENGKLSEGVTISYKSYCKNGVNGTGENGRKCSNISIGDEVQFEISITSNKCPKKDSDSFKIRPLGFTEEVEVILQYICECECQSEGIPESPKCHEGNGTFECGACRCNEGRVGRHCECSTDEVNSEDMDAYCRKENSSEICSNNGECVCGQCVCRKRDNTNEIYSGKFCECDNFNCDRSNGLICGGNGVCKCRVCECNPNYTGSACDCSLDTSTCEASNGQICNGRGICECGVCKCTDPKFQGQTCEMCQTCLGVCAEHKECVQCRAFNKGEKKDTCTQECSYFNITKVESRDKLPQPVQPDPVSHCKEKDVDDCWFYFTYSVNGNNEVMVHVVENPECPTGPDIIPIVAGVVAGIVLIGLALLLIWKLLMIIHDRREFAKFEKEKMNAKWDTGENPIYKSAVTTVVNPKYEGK
Experimental: In a second approach, a solid phase binding assay was used in which CTGF1-4 or FN were individually coated onto microtiter wells that were subsequently incubated with purified integrin α5β1. The presence of immobilized integrin α5β1 was detected by ELISA using an anti-integrin α5β1 antibody similar to the methods described in Example 3 above. In addition, CTGF1-4 bound to integrin α5β1 in a dose-dependent manner, with maximal binding at 2 μg/ml CTGF. This level of CTGF1-4 (2 μg/ml) binding was the same as that elicited by 2 μg/ml FN, a well known ligand of integrin α5β1. In a similar experiment, 2 μg/ml of CTGF1-4;CTGF3-4 or CTGF4 were individually precoated onto microtiter wells. Using the solid-phase assay, integrin α5β1 bound to CTGF1-4, CTGF3-4 or CTGF4 See FIG. 5 (Panel B).
To directly analyze whether α5β1 integrin binds to CTGF4, microtiter wells coated with CTGF4 (2 μg/ml) or FN (4 μg/ml) were used in an ELISA assay to detect integrin binding, as described in Example 3. For these assays, 1 μg/ml integrin α5β1, alone or in the presence of 35 μM of P2peptide (CTGF[257-272]) and 35 μM of P5 peptide (CTGF [285-291]), were added to the precoated plates. […] The binding between CTGF4 and integrin α5 β1 was blocked by peptide P5 (CTGF [285-291]) or peptide P2 (CTGF[257-272]). […]

[3] = test system: hepatic stellate cells (HSC); experiment: HSC adhesion assay on coated wells (CyQUANT fluorescence); type: cell-based, rat; details: for inhibition of CTGF1-4-mediated HSC adhesion: wells coated 2 μg/ml CTGF1-4; for inhibition of CTGF1-4-mediated HSC adhesion / inhibition of CTGF3-4-mediated HSC adhesion / inhibition of CTGF4-mediated HSC adhesion: EDTA 10 mM, GRGDsp 1 mM, Echistatin 2 μM; for inhibition of CTGF3-4-mediated HSC adhesion: wells coated 2 μg/ml CTGF3-4; for inhibition of CTGF4-mediated HSC adhesion: wells coated 2 μg/ml CTGF4, antibody/IgG 25 μg/ml; for inhibition of CTGF4-mediated HSC adhesion / inhibition of HSC adherence to CTGF[257-272]: heparin 2 μg/ml; for inhibition of HSC adherence to CTGF[257-272]: peptide-coated wells
Experimental: CTGF4 is known to be expressed in hepatic stellate cells (HSC) and to induce proliferation and extracellular matrix (ECM) production in these cells. (Williams et al., J Hepatol 32, 754-761, 2000; Paradis et al., Lab Invest 82, 767-774, 2002). The following experiments were carried out to determine if HSCs adhere to CTGF. HSCs were isolated from normal Sprague-Dowley rate by sequential perfusion with pronase/collagenase and purified by density gradient separation as described in Vyas et al. (Gastroenterology 109: 889-898, 1995).
The cells were subsequently detached using 1 mM EDTA PBS (137 mM NaCl, 2.7 mM KCl, 4.3 mM Na2HPO4, 1.4 mM KH2PO4, pH 7.3), washed twice in DMEM and resuspended in serum free medium containing 0.5% BSA. The cells-were plated (1.25×10^4 cells/well) in a 96 well plate coated with one of the following: 2 μg/ml CTGF isoform (CTGF1-4, CTGF3-4, CTGF4), 1 μg/ml laminin, or 4 μg/ml vitronectin and incubated for 20 minutes at 37° C. Subsequently the cells were washed with PBS and the adherent cells were fixed with 10% formalin and stained with CyQUANT GR dye/cell lysis buffer (Molecular Probes , Eugene, Oreg.) according to the manufacturer's instructions. The number of cells that adhered to CTGF isoforms or ECM protein was quantified by measuring the sample fluorescence intensity at Ex/Em: 480/520 nm using a micro-plate reader (CytoFluor™ 2350).
To determine if the CTGF-mediated HSC adhesion was carried out through integrin receptors, the experiment described above were carried out in the presence and absence of 10 mM EDTA. […] It is widely believed that Mn^2+ induces conformational shifts that mimic the physiological activation of β1 and β3 integrins (Roberts et al., J Biol Chem 278: 1975-1985, 2003, van der Pauw et al., J Periodontal Res 37: 317-323, 2002) as Mn^2+-induced activation leads to enhanced ligand-binding affinity and cell adhesion (Mould et al., J Biol Chem 277: 19800-19805, 2002, Loftus & Liddington J Clin Invest 100: S77-81, 1997, Lin et al., J Biol Chem 272: 14236-14243, […]).
Synthetic peptides GRGDsp (1 mM), GRGEsp (1 mM), Echistatin (2 μM) or vehicle buffer alone were added to the, HSC culture medium 30 minutes prior to plating.
In addition, adhesion assays as described in Example 1 were carried out in CTGF4 coated plates in the presence and absence of monoclonal antibody specific for αvβ3 (LM609).

β3 integrin = biological target: T1, β3 integrin (Homo sapiens, UniProt P05106); details: Gould et al. 1990; cited from earlier work
T1 sequence (P05106 27-788): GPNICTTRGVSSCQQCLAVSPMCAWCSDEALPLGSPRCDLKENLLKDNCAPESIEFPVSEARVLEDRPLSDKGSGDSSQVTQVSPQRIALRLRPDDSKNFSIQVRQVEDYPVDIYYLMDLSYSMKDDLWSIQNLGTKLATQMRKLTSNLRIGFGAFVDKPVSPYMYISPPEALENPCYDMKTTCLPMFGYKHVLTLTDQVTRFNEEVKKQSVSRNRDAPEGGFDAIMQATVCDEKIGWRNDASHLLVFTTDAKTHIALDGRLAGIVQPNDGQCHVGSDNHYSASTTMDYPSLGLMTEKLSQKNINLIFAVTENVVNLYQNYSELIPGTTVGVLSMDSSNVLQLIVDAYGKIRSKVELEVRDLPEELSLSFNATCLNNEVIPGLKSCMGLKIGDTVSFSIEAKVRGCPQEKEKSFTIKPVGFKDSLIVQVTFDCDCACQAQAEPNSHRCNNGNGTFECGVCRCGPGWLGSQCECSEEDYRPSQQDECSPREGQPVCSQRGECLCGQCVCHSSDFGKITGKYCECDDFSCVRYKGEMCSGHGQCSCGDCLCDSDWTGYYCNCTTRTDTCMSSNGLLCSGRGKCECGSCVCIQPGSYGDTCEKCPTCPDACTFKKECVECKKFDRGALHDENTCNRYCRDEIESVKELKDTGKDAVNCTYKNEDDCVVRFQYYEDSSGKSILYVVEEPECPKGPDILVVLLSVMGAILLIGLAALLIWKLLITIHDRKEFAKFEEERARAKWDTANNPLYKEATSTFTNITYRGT

integrin αvβ3 = integrin αvβ3 (Homo sapiens, UniProt P05106+P06756); experiment: Integrin αvβ3-CTGF immunoprecipitation / immunoblot; type: binding; details: 20 μM Echistatin
integrin αvβ3, sequence (P06756 31-889 limits assumed, one chain of several): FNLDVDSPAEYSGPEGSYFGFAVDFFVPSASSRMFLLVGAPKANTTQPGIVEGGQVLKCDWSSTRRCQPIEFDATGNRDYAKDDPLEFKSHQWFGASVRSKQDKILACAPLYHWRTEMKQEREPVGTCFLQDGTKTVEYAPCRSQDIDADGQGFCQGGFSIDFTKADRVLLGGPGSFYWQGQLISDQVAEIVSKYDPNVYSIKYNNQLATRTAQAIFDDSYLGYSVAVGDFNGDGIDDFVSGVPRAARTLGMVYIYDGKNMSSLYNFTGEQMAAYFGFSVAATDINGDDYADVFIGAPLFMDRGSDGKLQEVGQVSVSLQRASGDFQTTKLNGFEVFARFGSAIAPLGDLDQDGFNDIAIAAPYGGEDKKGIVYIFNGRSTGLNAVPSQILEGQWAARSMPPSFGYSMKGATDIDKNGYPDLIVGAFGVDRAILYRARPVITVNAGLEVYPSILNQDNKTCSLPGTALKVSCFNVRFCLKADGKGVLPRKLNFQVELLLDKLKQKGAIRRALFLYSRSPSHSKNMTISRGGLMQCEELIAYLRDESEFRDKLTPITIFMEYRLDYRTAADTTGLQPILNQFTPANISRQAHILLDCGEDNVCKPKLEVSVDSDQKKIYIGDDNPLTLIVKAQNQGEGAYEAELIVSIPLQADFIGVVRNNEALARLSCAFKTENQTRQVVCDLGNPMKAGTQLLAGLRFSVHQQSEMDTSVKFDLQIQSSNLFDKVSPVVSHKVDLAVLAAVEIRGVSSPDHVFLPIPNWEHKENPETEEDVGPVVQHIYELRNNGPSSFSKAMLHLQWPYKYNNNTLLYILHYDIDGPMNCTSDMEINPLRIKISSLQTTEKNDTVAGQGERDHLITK
integrin αvβ3, sequence (P06756 891-1048 partner limits assumed, one chain of several): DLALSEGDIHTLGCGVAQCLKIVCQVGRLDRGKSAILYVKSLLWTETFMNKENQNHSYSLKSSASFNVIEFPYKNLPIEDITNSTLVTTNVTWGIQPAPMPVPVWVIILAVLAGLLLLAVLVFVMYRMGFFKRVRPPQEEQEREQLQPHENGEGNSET
Experimental: To further characterize the interaction between CTGF4 and integrin αvβ3, each CTGF isoforms (CTGF1-4, CTGF3-4, CTGF4) was individually mixed with αvβ3, followed by immunoprecipitation with rabbit anti-CTGF polyclonal antibody and immunoblotting with anti-αvβ3. Human integrin αvβ3 (2 μg) and each individual CTGF isoform (4 μg) were incubated in 1 ml NP40 buffer with rocking at 4° C. for 2 hours. As a control, 20 μM Echistatin was added prior to adding the CTGF isoforms. Subsequently, polyclonal rabbit anti-CTGF antibody (1:100) or mouse IgG was added to the complex and the mixtures were further incubated at 4° C. for 16 hours. After incubation, 25 ,μl of Protein A was added to each mixture for 1 hour. The samples were separated on 8% SDS-polyacrylamide gels, and transferred onto nitrocellulose. The membrane was then incubated with anti-human αvβ3 monoclonal antibody (1:1000) diluted in TBS/Tween 20 (0.05%) containing 5% non-fat milk. Integrin αvβ3 bound similarly to all CTGF isoforms.

PSCs [4] = experiment: PSC chemotaxis (migration) assay in culture insert; type: cell-based, rat
Experimental: To examine whether CTGF plays a role in PSC migration, a chemotaxis assay was carried out in which the migratory behavior of PSCs in the upper chamber of a culture insert was assessed following addition of CTGF to the lower chamber. […] PSC migration was also promoted by FN, PDGF or TGF-β1.

CTGF promoter = CTGF promoter luciferase reporter pCCN2-Luc in PSCs; type: cell-based, rat
Experimental: TGF-β1 is a well characterized transcriptional activator of CTGF in other cell types. To further examine the mechanism by which TGF-β1 and other fibrogenic stimulators could influence CTGF production in PSCs, CTGF promoter activity in PSCs was evaluated using the luciferase reporter, pCCN2-Luc, as described in Gao et al., (J Hepatol 2004;40:431-8).

PSCs [5] = experiment: PSC DNA synthesis, [3H]thymidine incorporation; type: cell-based, rat; details: 24 hours; CTGF1-4 effect in 0.1% serum, not in serum-free medium
Experimental: To measure the effect of CTGF on cell proliferation, DNA synthesis was measured by ^3H incorporation in PSCs. The cells were incubated for 24 hours with 0.2 μCi [^3H] thymidine in each well (24-well plate). The incorporation of [^3H] thymidine into PSC DNA was determined using a scintillation counter after the cells had been washed with PBS, fixed with 10% methanol, treated with cold 5% trichloroacetic acid, and lysed in 0.3 N NaOH.

CTGF = CTGF production by PSCs (immunoprecipitation); type: cell-based, rat; details: TGF-β1 20 ng/ml; P<0.01

- inhibition of binding between CTGF4 and integrin α5β1 (integrin α5β1): blocked
Compound: O=C(O)CN(CCN(CC(=O)O)CC(=O)O)CC(=O)O [EDTA, reference compound]
- inhibition of PSC adhesion to CTGF4 ([1]; EDTA 5 mM): significantly decreased
- inhibition of PSC adhesion to CTGF3-4 ([1]; EDTA 5 mM): significantly decreased
- inhibition of PSC adhesion to CTGF1-4 ([1]; EDTA 5 mM): significantly decreased
- binding of all cell types to 10 kDa CTGF after EDTA treatment ([2]; effect relatively modest in 3T3 cells): reduced
- inhibition of CTGF1-4-mediated HSC adhesion [3]: 50%
- inhibition of CTGF3-4-mediated HSC adhesion [3]: 50%
- inhibition of CTGF4-mediated HSC adhesion [3]: 90%

Compound: Echistatin (QCESGPCCRNCKFLKEGTICKRARGDDMDDYCNGKTCDCPRNPHKGPAT)
- effectiveness relative to short RGDX peptides (β3 integrin): at least 500 times
- competition for the binding of αvβ3 with CTGF4 (integrin αvβ3): fully competed
- inhibition of HSC adherence to CTGF[257-272] [3]: 40%
- inhibition of CTGF1-4-mediated HSC adhesion [3]: 58%
- inhibition of CTGF3-4-mediated HSC adhesion [3]: 62%
- inhibition of CTGF4-mediated HSC adhesion [3]: 69%

Compound: heparin
- inhibition of PSC adhesion to CTGF4 ([1]; EDTA 5 mM): blocked
- inhibition of PSC adhesion to CTGF1-4 ([1]; EDTA 5 mM): blocked
- inhibition of FN-mediated PSC adhesion ([1]; fibronectin coat): little effect
- inhibition of binding of each cell type to 10 kDa CTGF ([2]; 5 μg/ml heparin, each cell type incl. 3T3): completely inhibited
- inhibition of PSC migration in response to CTGF (PSCs [4]; CTGF1-4 or CTGF4): blocked
- inhibition of HSC adherence to CTGF[257-272] [3]: abrogated
- inhibition of CTGF4-mediated HSC adhesion [3]: completely abrogated
- inhibition of vitronectin-mediated HSC adhesion ([3]; wells coated 4 μg/ml vitronectin): little effect

- activity of pCCN2-Luc in PSC (CTGF promoter; P<0.01 compared with no stimulation): significantly increased
- activation of pCCN2-Luc compared among four stimulators (CTGF promoter; P<0.05): strongest activation
Compound: TGF-β1: transcriptional activator of CTGF
- PSC proliferation (DNA synthesis) (PSCs [5]): did not induce proliferation
- CTGF1-4, CTGF3-4 and CTGF4 levels in cell lysates and conditioned medium (CTGF): significantly increased
- PSC migration (PSCs [4]; substance in lower chamber): promoted

Reference: patent publication US20050153395A1, “Unique integrin binding site in connective tissue growth factor (CTGF)” (CHILDREN'S HOSPITAL INC., priority 2003, published 2005)
